Consider four molecules from article PMC11855086, “Synthesis, Antimicrobial Activity, and Tyrosinase Inhibition by Multifunctional 3,4-Dihydroxy-Phenyl Peptidomimetics” (International Journal of Molecular Sciences, 2025).

A word on the inhibition: it is the share of the control response that was lost under treatment. A lower inhibition goes with a response near the control. Usually IC50 stands for the point on the concentration scale where inhibition reaches its midpoint.

Test [1] has as its system A. baumannii (ATCC 17978). Briefly: MIC and MBC, microtiter plate technique. The test is classed as cell-based. The note with it: ATCC17978, Acinetobacter baumannii; for MIC: 24 h, resazurin; for MBC: TTC. Background: Alamar Blue is a resazurin reagent that responds to reducing activity.
The next test deals with S. aureus (ATCC 23235). Briefly: microbe, parasite or virus in culture. It is filed as cell-based. The note with it: Staphylococcus aureus; for MBC: ATCC23235; for MIC: ATCC23235, 24 h.
Test [2] has as its system P. aeruginosa (ATCC 15442). In words: MIC and MBC, microtiter plate technique. The test is classed as cell-based. The note with it: ATCC15442, Pseudomonas aeruginosa; for MIC: 24 h, resazurin; for MBC: TTC.
For test [3], the target named is T1, mushroom tyrosinase (mTYR) (Agaricus bisporus, UniProt C7FF04).
T1 construct: purchased Sigma-Aldrich (Poznan, Poland); host or cells: Agaricus bisporus (extracted natural enzyme)
In words: Tyrosinase assay with L-DOPA as substrate (absorbance at 475 nm). As to conditions: 100 µM compound. The test is classed as biochemical. From the text: Tyrosinase (Tyr) extracted from Agaricus bisporus (mushroom tyrosinase, mTYR) is commonly used as a model enzyme for human Tyr due to its high purity, stability, and commercial availability. It is frequently used in the selection of TYR inhibitors. Following established literature protocols, L-tyrosine and L-DOPA, which serve as substrates for monophenol and diphenol oxidation, respectively, were used to assess the tyrosinase inhibitory activity of synthesized target compounds [21].
Tyrosinase (Tyr) activity was measured using L-DOPA as substrate and phosphate buffer solution (PBS) as blank control, following the method described by Min He et al. (2022) with an ultraviolet spectrophotometer (Carry-300, Agilent Life Sciences and Chemical Analysis, Santa Clara, CA, USA). […] Before the experiment, 2.9 mL of PBS and 0.1 mL of DMSO were used to account for the influence of the background solvent. The inhibitor solution (100 µL), substrate solution (2.8 mL), and Tyr solution (100 µL) were then added to a quartz colorimetric cuvette. After a one-minute mixing period, the absorption spectra of the mixture were continuously recorded at 475 nm using the UV spectrophotometer (Carry-300) for 5 min over a period of every 30 s. The tyrosinase inhibition rate was calculated as follows:Relative enzyme activity (%) = (A1 − A2)/A1 × 100
A1 = Absorbance of L-DOPA and inhibitor.
A2 = Absorbance of L-DOPA, inhibitor, and tyrosinase.

The next test relates to E. cloacae (ATCC 49141). Briefly: MIC and MBC, microtiter plate technique. It is filed as cell-based. The note with it: ATCC49141, Enterobacter cloacae; for MIC: 24 h, resazurin; for MBC: TTC.
The test system of a further test is E. coli R3 (ATCC 11775). Briefly: MIC and MBC, microtiter plate technique. It is filed as cell-based. As to conditions: Escherichia coli; for MIC: ATCC11775, 24 h, resazurin; for MBC: ATCC11775, TTC.
Another test deals with E. coli K12 (ATCC 25404). Briefly: MIC and MBC, microtiter plate technique. The test is classed as cell-based. As to conditions: Escherichia coli; for MBC: ATCC25404; for MIC: ATCC25404, 24 h.
The test system of the next test is E. coli R2 (ATCC 39544). Briefly: MIC and MBC, microtiter plate technique. As to conditions: Escherichia coli; for MBC: ATCC39544; for MIC: ATCC39544, 24 h. The test is classed as cell-based.
For a further test, the system named is E. coli R4 (ATCC 39543). Briefly: MIC and MBC, microtiter plate technique. The test is classed as cell-based. The note with it: Escherichia coli; for MBC: ATCC39543; for MIC: ATCC39543, 24 h.
Test [4] addresses T1, mushroom tyrosinase (mTYR). Details: method as in earlier work. The note with it: reported value; cited from earlier work.

Values after ≈ are worked out from the molar mass of the structure shown.

T1 sequence (C7FF04 1-392 limits assumed): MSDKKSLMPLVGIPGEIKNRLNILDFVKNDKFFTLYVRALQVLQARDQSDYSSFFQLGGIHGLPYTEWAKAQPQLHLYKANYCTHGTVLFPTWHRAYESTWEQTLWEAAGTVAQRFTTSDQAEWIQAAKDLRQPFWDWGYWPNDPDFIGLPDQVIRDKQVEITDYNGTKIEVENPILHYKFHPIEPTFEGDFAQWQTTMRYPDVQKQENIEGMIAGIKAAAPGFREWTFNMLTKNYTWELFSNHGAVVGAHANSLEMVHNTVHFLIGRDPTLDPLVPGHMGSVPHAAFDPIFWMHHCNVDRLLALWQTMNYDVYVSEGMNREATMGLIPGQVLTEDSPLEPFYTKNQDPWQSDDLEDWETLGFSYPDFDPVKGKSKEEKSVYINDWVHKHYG

With `CCCCN(C(C)=O)C(C(=O)NCc1ccc(F)cc1)c1ccc(O)c(O)c1` (stereo not drawn) [Compound 5r, 2-(N-butylacetamido)-2-(3,4-dihydroxyphenyl)-N-(4-fluorobenzyl)acetamide], the MIC in test [1] came out at 1.26 µM (≈ 0.489 µg/mL); in the test with S. aureus (ATCC 23235), 1.51 µM (≈ 0.587 µg/mL); in test [2] it was 1.64 µM (≈ 0.637 µg/mL); in the test on E. cloacae (ATCC 49141) it was 1.67 µM (≈ 0.649 µg/mL); against E. coli R3 (ATCC 11775), 2.56 µM (≈ 0.994 µg/mL); with E. coli K12 (ATCC 25404), 0.74 µM (≈ 0.287 µg/mL). The MIC in the test with E. coli R2 (ATCC 39544) amounted to 1.5 µM (≈ 0.583 µg/mL); against E. coli R4 (ATCC 39543), 3.13 µM (≈ 1.22 µg/mL). The MBC was determined as 1.31 µM (≈ 0.509 µg/mL) in [1]; 1.54 µM (≈ 0.598 µg/mL) against S. aureus (ATCC 23235); 1.49 µM (≈ 0.579 µg/mL) in test [2]; 1.5 µM (≈ 0.583 µg/mL) in the test on E. cloacae (ATCC 49141); 3.14 µM (≈ 1.22 µg/mL) against E. coli R3 (ATCC 11775); 0.94 µM (≈ 0.365 µg/mL) with E. coli K12 (ATCC 25404). For the same molecule, the figures for the MBC in the test with E. coli R2 (ATCC 39544) and against E. coli R4 (ATCC 39543) were 1.51 µM (≈ 0.587 µg/mL) and 3.5 µM (≈ 1.36 µg/mL), respectively. Also, the inhibition at 100 µM in test [3] was below 10%.

Take `O=C(NCc1ccccc1)C(c1ccc(O)c(O)c1)N(C(=O)Cc1ccccc1)C1CCCCC1` (stereo not drawn) [Compound 5d, N-benzyl-2-(N-cyclohexyl-2-phenylacetamido)-2-(3,4-dihydroxyphenyl)acetamide]: the MIC in test [1] stood at 0.74 µM (≈ 0.35 µg/mL); in the test with S. aureus (ATCC 23235) it was 0.68 µM (≈ 0.321 µg/mL); in [2], 0.63 µM (≈ 0.298 µg/mL); in the test on E. cloacae (ATCC 49141), 0.68 µM (≈ 0.321 µg/mL); in the test on E. coli R3 (ATCC 11775), 0.92 µM (≈ 0.435 µg/mL); in the test on E. coli K12 (ATCC 25404), 0.36 µM (≈ 0.17 µg/mL). For the same molecule, the values for the MIC against E. coli R2 (ATCC 39544) and against E. coli R4 (ATCC 39543) were 0.68 µM (≈ 0.321 µg/mL) and 1.45 µM (≈ 0.685 µg/mL), respectively. Moreover, the MBC was determined as 0.75 µM (≈ 0.354 µg/mL) in test [1]; 0.74 µM (≈ 0.35 µg/mL) with S. aureus (ATCC 23235); 0.74 µM (≈ 0.35 µg/mL) in [2]; 0.76 µM (≈ 0.359 µg/mL) in the test on E. cloacae (ATCC 49141); 1.06 µM (≈ 0.501 µg/mL) in the test on E. coli R3 (ATCC 11775); 0.74 µM (≈ 0.35 µg/mL) in the test on E. coli K12 (ATCC 25404). For the same molecule, the MBC with E. coli R2 (ATCC 39544) was determined as 1.07 µM (≈ 0.506 µg/mL); in the test with E. coli R4 (ATCC 39543), 1.29 µM (≈ 0.61 µg/mL). The inhibition at 100 µM in test [3] was above 10%.

As for `COc1ccc(CNC(=O)C(c2ccc(O)c(O)c2)N(Cc2ccc(OC)cc2)C(=O)Cc2ccccc2)cc1` (stereo not drawn) [Compound 5b, 2-(3,4-dihydroxyphenyl)-N-(4-methoxybenzyl)-2-(N-(4-methoxybenzyl)-2-phenylacetamido)-acetamide], the MIC in [1] came out at 0.83 µM (≈ 0.449 µg/mL); in the test on S. aureus (ATCC 23235), 0.9 µM (≈ 0.487 µg/mL); in [2] it was 0.96 µM (≈ 0.519 µg/mL); with E. cloacae (ATCC 49141), 1 µM (≈ 0.541 µg/mL); against E. coli R3 (ATCC 11775) it was 1.61 µM (≈ 0.87 µg/mL); in the test on E. coli K12 (ATCC 25404) it was 0.45 µM (≈ 0.243 µg/mL). Further, the figures for the MIC against E. coli R2 (ATCC 39544) and in the test with E. coli R4 (ATCC 39543) were 0.98 µM (≈ 0.53 µg/mL) and 2 µM (≈ 1.08 µg/mL), respectively. Moreover, the MBC turned out to be 0.9 µM (≈ 0.487 µg/mL) in test [1]; 0.96 µM (≈ 0.519 µg/mL) against S. aureus (ATCC 23235); 0.99 µM (≈ 0.535 µg/mL) in test [2]; 1.05 µM (≈ 0.568 µg/mL) in the test with E. cloacae (ATCC 49141); 1.7 µM (≈ 0.919 µg/mL) in the test with E. coli R3 (ATCC 11775); 0.61 µM (≈ 0.33 µg/mL) with E. coli K12 (ATCC 25404). In addition, the MBC against E. coli R2 (ATCC 39544) was 1.03 µM (≈ 0.557 µg/mL); in the test on E. coli R4 (ATCC 39543) it was 2.21 µM (≈ 1.19 µg/mL). The molecule further displayed an inhibition at 100 µM in test [3] above 10%.

In the case of `O=Cc1ccc(O)c(O)c1` [Compound 1, 3,4-dihydroxybenzaldehyde, reference compound], the MIC in test [1] is 2.82 µM (≈ 0.39 µg/mL); in the test on S. aureus (ATCC 23235), 2.67 µM (≈ 0.369 µg/mL); in test [2], 3 µM (≈ 0.414 µg/mL); against E. cloacae (ATCC 49141), 2.75 µM (≈ 0.38 µg/mL); against E. coli R3 (ATCC 11775), 2.85 µM (≈ 0.394 µg/mL); against E. coli K12 (ATCC 25404), 1.39 µM (≈ 0.192 µg/mL). Also, the MIC turned out to be 2.46 µM (≈ 0.34 µg/mL) against E. coli R2 (ATCC 39544) and 3.57 µM (≈ 0.493 µg/mL) with E. coli R4 (ATCC 39543). Also, the MBC in test [1] is 3.55 µM (≈ 0.49 µg/mL); against S. aureus (ATCC 23235), 3.33 µM (≈ 0.46 µg/mL); in test [2], 3.33 µM (≈ 0.46 µg/mL); against E. cloacae (ATCC 49141) it was 3.04 µM (≈ 0.42 µg/mL); against E. coli R3 (ATCC 11775), 2.96 µM (≈ 0.409 µg/mL); in the test with E. coli K12 (ATCC 25404), 1.82 µM (≈ 0.251 µg/mL). In addition, the MBC was found to be 2.6 µM (≈ 0.359 µg/mL) against E. coli R2 (ATCC 39544) and 3.58 µM (≈ 0.494 µg/mL) in the test with E. coli R4 (ATCC 39543). Besides, the IC50 in test [4] was 250 µM. In test [3], this molecule returned an inhibition at 100 µM of 15%.
